{"source": "PubChem BioAssay (NCI)", "test_in_all_cases": "NCI tumour cell line growth inhibition, 48 h", "key": {"CAKI-1 renal": {"test_system": "CAKI-1 renal"}, "SN12C renal": {"test_system": "SN12C renal"}, "HOP-62 NSCLC": {"test_system": "HOP-62 NSCLC"}, "SK-MEL-2 melanoma": {"test_system": "SK-MEL-2 melanoma"}, "UACC-257 melanoma": {"test_system": "UACC-257 melanoma"}, "UACC-62 melanoma": {"test_system": "UACC-62 melanoma"}, "HOP-92 NSCLC": {"test_system": "HOP-92 NSCLC"}, "HCT-15 colon": {"test_system": "HCT-15 colon"}, "OVCAR-4 ovarian": {"test_system": "OVCAR-4 ovarian"}, "SK-MEL-5 melanoma": {"test_system": "SK-MEL-5 melanoma"}, "OVCAR-8 ovarian": {"test_system": "OVCAR-8 ovarian"}, "SK-OV-3 ovarian": {"test_system": "SK-OV-3 ovarian"}, "IGROV1 ovarian": {"test_system": "IGROV1 ovarian"}, "MALME-3M melanoma": {"test_system": "MALME-3M melanoma"}, "MOLT-4 leukemia": {"test_system": "MOLT-4 leukemia"}, "NCI-H460 lung": {"test_system": "NCI-H460 lung"}, "NCI-H522 lung": {"test_system": "NCI-H522 lung"}, "K-562 leukemia": {"test_system": "K-562 leukemia"}, "NCI-H226 lung": {"test_system": "NCI-H226 lung"}, "SF-539 CNS": {"test_system": "SF-539 CNS"}, "RPMI-8226 leukemia": {"test_system": "RPMI-8226 leukemia"}, "OVCAR-3 ovarian": {"test_system": "OVCAR-3 ovarian"}, "CCRF-CEM leukemia": {"test_system": "CCRF-CEM leukemia"}, "HS 578T breast": {"test_system": "HS 578T breast"}, "DU-145 prostate": {"test_system": "DU-145 prostate"}, "MDA-MB-435": {"test_system": "MDA-MB-435"}, "HCT-116 colon": {"test_system": "HCT-116 colon"}, "SW-620 colon": {"test_system": "SW-620 colon"}, "U251 CNS": {"test_system": "U251 CNS"}}, "note": "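1) Cells in 96-well plates. 2) Compound, 48 h, 5 concentrations. 3) Linear interpolation between surrounding doses. 4) Unreached endpoint = highest concentration. GI50 marks 50% less growth. TGI: total growth inhibition.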"}
{"smiles": "COc1ccc(-c2cc(-c3ccc(C)cc3)nc3nc(=S)[nH]c(N)c23)cc1", "values": [{"measurement": "TGI", "setting": "CAKI-1 renal", "value": 54.2, "unit": "µM"}, {"measurement": "GI50", "setting": "SN12C renal", "value": 20.5, "unit": "µM"}, {"measurement": "TGI", "setting": "SN12C renal", "value": 48.6, "unit": "µM"}, {"measurement": "GI50", "setting": "HOP-62 NSCLC", "value": 18.8, "unit": "µM"}, {"measurement": "TGI", "setting": "HOP-62 NSCLC", "value": 40.6, "unit": "µM"}, {"measurement": "GI50", "setting": "SK-MEL-2 melanoma", "value": 19, "unit": "µM"}, {"measurement": "TGI", "setting": "SK-MEL-2 melanoma", "value": 41, "unit": "µM"}, {"measurement": "GI50", "setting": "UACC-257 melanoma", "value": 22.8, "unit": "µM"}, {"measurement": "TGI", "setting": "UACC-257 melanoma", "value": 45.3, "unit": "µM"}, {"measurement": "GI50", "setting": "UACC-62 melanoma", "value": 20.6, "unit": "µM"}, {"measurement": "TGI", "setting": "UACC-62 melanoma", "value": 45.6, "unit": "µM"}, {"measurement": "GI50", "setting": "HOP-92 NSCLC", "value": 15.5, "unit": "µM"}, {"measurement": "TGI", "setting": "HOP-92 NSCLC", "value": 75.5, "unit": "µM"}, {"measurement": "GI50", "setting": "HCT-15 colon", "value": 23.9, "unit": "µM"}, {"measurement": "TGI", "setting": "HCT-15 colon", "value": 64.4, "unit": "µM"}, {"measurement": "GI50", "setting": "OVCAR-4 ovarian", "value": 74.3, "unit": "µM"}, {"measurement": "TGI", "setting": "OVCAR-4 ovarian", "value": "> 100", "unit": "µM"}, {"measurement": "GI50", "setting": "SK-MEL-5 melanoma", "value": 14.1, "unit": "µM"}, {"measurement": "TGI", "setting": "SK-MEL-5 melanoma", "value": 29.6, "unit": "µM"}, {"measurement": "GI50", "setting": "OVCAR-8 ovarian", "value": 21.5, "unit": "µM"}, {"measurement": "TGI", "setting": "OVCAR-8 ovarian", "value": 86.4, "unit": "µM"}, {"measurement": "GI50", "setting": "SK-OV-3 ovarian", "value": 40.4, "unit": "µM"}, {"measurement": "TGI", "setting": "SK-OV-3 ovarian", "value": "> 100", "unit": "µM"}, {"measurement": "GI50", "setting": "IGROV1 ovarian", "value": 28.2, "unit": "µM"}, {"measurement": "TGI", "setting": "IGROV1 ovarian", "value": 78.4, "unit": "µM"}, {"measurement": "GI50", "setting": "MALME-3M melanoma", "value": 26.7, "unit": "µM"}, {"measurement": "TGI", "setting": "MALME-3M melanoma", "value": 43.3, "unit": "µM"}, {"measurement": "GI50", "setting": "MOLT-4 leukemia", "value": 35.6, "unit": "µM"}, {"measurement": "TGI", "setting": "MOLT-4 leukemia", "value": 72.3, "unit": "µM"}, {"measurement": "GI50", "setting": "NCI-H460 lung", "value": 12, "unit": "µM"}, {"measurement": "TGI", "setting": "NCI-H460 lung", "value": 27.5, "unit": "µM"}, {"measurement": "GI50", "setting": "NCI-H522 lung", "value": 19.3, "unit": "µM"}, {"measurement": "TGI", "setting": "NCI-H522 lung", "value": 39, "unit": "µM"}, {"measurement": "GI50", "setting": "K-562 leukemia", "value": 15.1, "unit": "µM"}, {"measurement": "TGI", "setting": "K-562 leukemia", "value": 36.5, "unit": "µM"}, {"measurement": "GI50", "setting": "NCI-H226 lung", "value": 17.5, "unit": "µM"}, {"measurement": "TGI", "setting": "NCI-H226 lung", "value": 41.7, "unit": "µM"}, {"measurement": "GI50", "setting": "SF-539 CNS", "value": 19.2, "unit": "µM"}, {"measurement": "TGI", "setting": "SF-539 CNS", "value": 38.9, "unit": "µM"}, {"measurement": "GI50", "setting": "RPMI-8226 leukemia", "value": 18.4, "unit": "µM"}, {"measurement": "TGI", "setting": "RPMI-8226 leukemia", "value": 44.4, "unit": "µM"}, {"measurement": "GI50", "setting": "OVCAR-3 ovarian", "value": 13.6, "unit": "µM"}, {"measurement": "TGI", "setting": "OVCAR-3 ovarian", "value": 30.4, "unit": "µM"}, {"measurement": "GI50", "setting": "CCRF-CEM leukemia", "value": 18.8, "unit": "µM"}, {"measurement": "TGI", "setting": "CCRF-CEM leukemia", "value": 64.8, "unit": "µM"}, {"measurement": "GI50", "setting": "HS 578T breast", "value": 17.9, "unit": "µM"}, {"measurement": "TGI", "setting": "HS 578T breast", "value": 46.9, "unit": "µM"}, {"measurement": "GI50", "setting": "DU-145 prostate", "value": 26.3, "unit": "µM"}, {"measurement": "TGI", "setting": "DU-145 prostate", "value": 75.5, "unit": "µM"}, {"measurement": "GI50", "setting": "MDA-MB-435", "value": 17.6, "unit": "µM"}, {"measurement": "TGI", "setting": "MDA-MB-435", "value": 36.9, "unit": "µM"}, {"measurement": "GI50", "setting": "HCT-116 colon", "value": 11.3, "unit": "µM"}, {"measurement": "TGI", "setting": "HCT-116 colon", "value": 26.6, "unit": "µM"}, {"measurement": "GI50", "setting": "SW-620 colon", "value": 17.9, "unit": "µM"}, {"measurement": "TGI", "setting": "SW-620 colon", "value": 33.9, "unit": "µM"}, {"measurement": "GI50", "setting": "U251 CNS", "value": 15.2, "unit": "µM"}, {"measurement": "TGI", "setting": "U251 CNS", "value": 29.3, "unit": "µM"}]}
